Data from patent US11241013B2, “Benzimidazole compounds as agricultural chemicals” (REDAG CROP PROTECTION LTD, priority 2017, dated 2022).
Values belong to the molecule of their own block, whether it stands above or below them.

What was measured:
Format in all cases: cell-based
Pythium ultimum = assay: Amended agar assay; parameters: key to % control Pythium ultimum 2 ppm / % control Pythium ultimum 20 ppm: D: no control detected at this concentration; C: up to 50% control; B: from 50 to 99% control; A: a control of greater than 99%, i.e. no detectable colony growth; details: for inhibition of growth at 2 ppm / inhibition of growth at 20 ppm: Globisporangium ultimum; for EC50 Pythium ultimum: amended agar assay, descending concentrations with 5-fold dilutions
Protocol: (§1) Testing was carried out on potato dextrose agar (PDA) amended with each compound at a test concentration of typically 20 ppm or 2 ppm. Amended agar was poured into three replicate 9 cm petri dishes. Each replicate dish was inoculated in the centre with a 5 mm agar plug taken from the leading edge of a culture aged between 2 and 7 days old; the age of the culture was dependant on the growth rate of the pathogen being tested. The test pathogens were Pythium ultimum and Phytophthora cinnamomi. Plates were incubated at 18° C. and the diameter of each colony measured before growth on the fastest growing plate reached the plate edge. This varied between 2 and 7 days depending on the growth rate of test pathogens. The % reduction in colony growth compared to the control plate was calculated for each pathogen. The results are provided in Table 1, in which D represents no control detected at this concentration; C represents up to 50% control; B from 50 to 99% control; and A represents a control of greater than 99%, i.e. no detectable colony growth.
(§2) Alternatively, or in addition, the same assay was conducted at descending test concentrations with 5-fold dilutions typically down to 0.032 ppm though sometimes as low as 0.00026 ppm, and an EC50 (the concentration at which 50% control would be achieved) was determined. The results are provided in Table 1 in which G represents no control detected at 20 ppm, F represents an EC50 of ≥20 ppm and E represents an EC50 of less than 20 ppm.

Phytophthora cactorum = assay: 96 well plate test; parameters: key: H: no control detected at 20 ppm; G: no control detected at 2 ppm (where the highest test concentration in the assay was 2 ppm); F: an EC50 of ≥20 ppm; an EC50 of less than 20 ppm; details: 96 well plate assay, agar amended to 20, 2, 0.2 and 0.02 ppm, assessed after 2 to 3 days
Protocol: Compounds were screened in 96 well plates with 10 compounds per plate. Each compound was screened using agar amended to 20, 2, 0.2 and 0.02 ppm, with proline at 50 and 10 ppm and 0.2% DMSO used as controls. Each test concentration and standard was replicated twice on a plate. Compounds were screened against Phytophthora cactorum. The agar used in the test is a 1% potato dextrose agar. 1000 spores/mL agar were added to the appropriate agar. A ×10 stock solution in 2% DMSO was produced for each dose i.e. 200, 20, 2 and 0.2 ppm, and 10 μl of this added to the appropriate wells on the plate. An equivalent amount of 2% DMSO and proline stock at 500 and 100 ppm were added for the controls. To each well 90 μl of the appropriate agar spore suspension was added to give the required final well concentrations. Plates were incubated at room temperature (18° C.) and assessed after 2 to 3 days. The amount of pathogen growth in each well was compared to the DMSO controls and an EC50 concentration was calculated. The results are provided in Table 1 in which H represents no control detected at 20 ppm, G represents no control detected at 2 ppm (where the highest test concentration in the assay was 2 ppm), F represents an EC50 of ≥20 ppm, E represents an EC50 of less than 20 ppm.

Phytophthora cinnamomi = assay: Amended agar assay; parameters: key to % control Phytophthora cinnamomi 20 ppm: D: no control detected at this concentration; C: up to 50% control; B: from 50 to 99% control; A: a control of greater than 99%, i.e. no detectable colony growth; details: for EC50 Phytophthora spp. (marked *: Phytophthora cinnamomi): values marked *: amended agar assay, descending concentrations with 5-fold dilutions; for % control Phytophthora cinnamomi 20 ppm: amended PDA agar, % reduction in colony growth vs control plate, 18° C.
Protocol: as §1, §2

[1] = amended PDA agar, 2 ppm, % reduction in colony growth vs control plate, 18° C.
[2] = amended PDA agar, % reduction in colony growth vs control plate, 18° C.

EC50 Phytophthora spp. (Phytophthora cactorum) (Phytophthora cactorum): G
SMILES: Cn1nnnc1-n1c(OCc2ccc3ccccc3n2)nc2c(Cl)cccc21 [Example 67]
inhibition of growth at 2 ppm (Pythium ultimum; [1]): > 99%

EC50 Pythium ultimum (Pythium ultimum): E (an EC50 of less than 20 ppm)
EC50 Phytophthora spp. (marked *: Phytophthora cinnamomi) (Phytophthora cinnamomi): E* (an EC50 of less than 20 ppm)
SMILES: Cn1nnnc1-n1c(OCc2ccccn2)nc2ccc(F)cc21 [Example 20]

SMILES: c1ccc(COc2nc3ccccc3n2-c2ccccn2)nc1 [Example 27]
inhibition of growth at 20 ppm (Pythium ultimum; [2]): < 50%
% control Phytophthora cinnamomi 20 ppm (Phytophthora cinnamomi): D

SMILES: Clc1cncnc1-c1c(OCc2ccccn2)[nH]c2ccccc12 [Example 33, 3-(5-Chloropyrimidin-4-yl)-2-(pyridin-2-ylmethoxy)-1H-indole]
inhibition of growth at 20 ppm (Pythium ultimum; [2]): < 50%
% control Phytophthora cinnamomi 20 ppm (Phytophthora cinnamomi): B (from 50 to 99% control)

EC50 Phytophthora spp. (Phytophthora cactorum) (Phytophthora cactorum): G
SMILES: Cn1nnnc1-n1c(OCc2cccc(NCc3cccnc3)n2)nc2ccccc21 [Example 41]
% control Pythium ultimum 2 ppm (Pythium ultimum; [1]): D

EC50 Pythium ultimum (Pythium ultimum): E (an EC50 of less than 20 ppm)
EC50 Phytophthora spp. (marked *: Phytophthora cinnamomi) (Phytophthora cinnamomi): E* (an EC50 of less than 20 ppm)
SMILES: Cn1nnnc1-n1c(OCc2cccc(N)n2)nc2ccc(Br)cc21 [Example 28]

EC50 Phytophthora spp. (Phytophthora cactorum) (Phytophthora cactorum): G
SMILES: Cn1nnnc1-n1c(OCc2cccc(NCc3ccc(C#N)cc3)n2)nc2ccccc21 [Example 46]
inhibition of growth at 2 ppm (Pythium ultimum; [1]): 50 to 99%

SMILES: Cc1cccnc1-n1c(OCc2ccccn2)nc2ccccc21 [Example 26]
% control Pythium ultimum 20 ppm (Pythium ultimum; [2]): D
% control Phytophthora cinnamomi 20 ppm (Phytophthora cinnamomi): D

SMILES: Cn1nnnc1-n1c(OCc2cccc(NS(C)(=O)=O)n2)nc2ccccc21 [Example 31, N-(6-(((1-(1-Methyl-1H-tetrazol-5-yl)-1H-benzo[d]imidazol-2-yl)oxy)methyl)pyridin-2-yl)methanesulfonamide]
% control Pythium ultimum 20 ppm (Pythium ultimum; [2]): D
% control Phytophthora cinnamomi 20 ppm (Phytophthora cinnamomi): B (from 50 to 99% control)

EC50 Pythium ultimum (Pythium ultimum): E (an EC50 of less than 20 ppm)
EC50 Phytophthora spp. (marked *: Phytophthora cinnamomi) (Phytophthora cinnamomi): E* (an EC50 of less than 20 ppm)
SMILES: Cn1nnnc1-n1c(OCc2ccccn2)nc2ccccc21 [Example 29]
inhibition of growth at 20 ppm (Pythium ultimum; [2]): > 99%
% control Phytophthora cinnamomi 20 ppm (Phytophthora cinnamomi): A (a control of greater than 99%, i.e. no detectable colony growth)

SMILES: Cn1nnnc1-n1c(OCc2cccc(N)n2)nc2ccccc21 [Example 1, 6-(((1-(1-Methyl-1H-tetrazol-5-yl)-1H-benzo[d]imidazol-2-yl)oxy)methyl)pyridin-2-amine]
inhibition of growth at 20 ppm (Pythium ultimum; [2]): > 99%
% control Phytophthora cinnamomi 20 ppm (Phytophthora cinnamomi): B (from 50 to 99% control)
